Ten molecules from patent publication US20200255478A1, “NOVEL COMPOUNDS ACTIVATING THE NRF2 PATHWAY” (Almirall, S.A., priority 2017, published 2020) can be followed below.

Starred links: 1 amine or outer side, 2 acyl side, 3 side chain; linkers in the order of their positions; H or OH if unused. Positions of bridges follow the written chain, without caps; N, C: chain ends. Non-standard residues stand in square brackets, D forms with d. Residues, ends and D or L forms follow the SMILES beside them. *: point of attachment. Pyridine(2,6-diCH2) = c1cc(C[*:1])nc(C[*:2])c1; Pyridine(3,5-bisCH2) = c1ncc(C[*:2])cc1C[*:1]; X1 = O=C([C@@H]1C[C@H](N[*:3])CN1[*:1])[*:2]; oXylylene = c1ccc(C[*:2])c(C[*:1])c1; Stearoyl = CCCCCCCCCCCCCCCCCC(=O)*; βAla = NCCC(=O)O Where only a bound is given, the exact number is not on record here.

The IC50 is the concentration that gives 50% inhibition.

One test deals with Keap1-Maltose Binding Protein (MBP tag) (Homo sapiens, UniProt Q14145). Nature of the test: Nrf2-Keap1 HTRF (TR-FRET) binding assay: displacement of biotinylated ETGE peptide from Keap1-MBP.
Keap1-Maltose Binding Protein (MBP tag), sequence (Q14145 whole entry): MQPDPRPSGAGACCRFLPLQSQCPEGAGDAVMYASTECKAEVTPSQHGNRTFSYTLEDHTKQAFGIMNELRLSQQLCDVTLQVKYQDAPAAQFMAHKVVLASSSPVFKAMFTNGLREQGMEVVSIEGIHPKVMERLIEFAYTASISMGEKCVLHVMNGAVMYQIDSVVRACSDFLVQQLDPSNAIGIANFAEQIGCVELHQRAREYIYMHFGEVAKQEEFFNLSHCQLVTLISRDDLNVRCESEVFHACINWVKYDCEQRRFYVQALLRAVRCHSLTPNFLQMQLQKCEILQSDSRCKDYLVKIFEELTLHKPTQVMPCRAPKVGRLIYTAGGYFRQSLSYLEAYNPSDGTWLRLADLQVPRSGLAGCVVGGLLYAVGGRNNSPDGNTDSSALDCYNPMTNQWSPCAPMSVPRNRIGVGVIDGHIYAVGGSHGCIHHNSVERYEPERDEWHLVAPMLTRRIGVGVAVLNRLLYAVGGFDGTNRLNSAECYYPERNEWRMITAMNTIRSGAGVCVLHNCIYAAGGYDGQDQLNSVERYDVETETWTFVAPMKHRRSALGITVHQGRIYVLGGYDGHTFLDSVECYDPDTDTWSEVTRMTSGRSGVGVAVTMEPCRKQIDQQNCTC
Settings: not given
On the technique in general: TR-FRET usually uses a lanthanide donor and a delayed reading to cut background.
In turn, `CC(=O)N[C@H]1C[C@H]2C(=O)N[C@@H](CCC(N)=O)C(=O)N[C@H]3CSCc4ccccc4CSC[C@H](NC(=O)[C@H](CCC(=O)O)NC(=O)CNC(=O)[C@H]([C@@H](C)O)NC(=O)[C@H](CCC(=O)O)NC(=O)[C@@H]4CCCN4C(=O)[C@H](CC(=O)O)NC3=O)C(=O)N[C@@H](CC(C)C)C(=O)N3CCC[C@@H]3C(=O)N2C1` [Example 64, {[&^1Pro((4S)-NH-Acetyl)-Gln-Cys(&^2)-Asp-Pro-Glu-Thr-Gly-Glu-Cys(&^3)-Leu-D-Pro&^1][&^2(1,2-phenylenediy1)dimethylene&^3]}] returned an IC50 of less than 1 nM.
Still for that read-out and setting: the result for `CCCCCCCCCCCCCCCCCC(=O)N[C@H]1C[C@H]2C(=O)N[C@@H](CCC(N)=O)C(=O)N[C@H]3CSCc4ccccc4CSC[C@H](NC(=O)[C@H](CCC(=O)O)NC(=O)CNC(=O)[C@H]([C@@H](C)O)NC(=O)[C@H](CCC(=O)O)NC(=O)[C@@H]4C[C@H](F)CN4C(=O)[C@H](CC(=O)O)NC3=O)C(=O)N[C@@H](CC(C)C)C(=O)N3CCC[C@@H]3C(=O)N2C1` [Example 72, {[&^1Pro((4S)-NH-Stearyl)-Gln-Cys(&^2)-Asp-Pro((4S)-F)-Glu-Thr-Gly-Glu-Cys(&^3)-Leu-D-Pro&^1][&^2(1,2-phenylenediyl)dimethylene&^2]}] reads 1 to 100 nM; that for `CCCCCCCCCCCCCCCCCC(=O)N[C@H]1C[C@H]2C(=O)N[C@@H](CCC(N)=O)C(=O)N[C@H]3CSCc4ccccc4CSC[C@H](NC(=O)[C@H](CCC(=O)O)NC(=O)CNC(=O)[C@H]([C@@H](C)O)NC(=O)[C@H](CCC(=O)O)NC(=O)[C@@H]4C[C@H](N)CN4C(=O)[C@H](CC(=O)O)NC3=O)C(=O)N[C@@H](CC(C)C)C(=O)N3CCC[C@@H]3C(=O)N2C1` [Example 73, {[&^1Pro((4S)-NH-Stearyl)-Gln-Cys(&^2)-Asp-Pro((4S)-NH2)-Glu-Thr-Gly-Glu-Cys(&^3)-Leu-D-Pro&^1][&^2(1,2-phenylenediyl)dimethylene&^3]}], 1 to 100 nM.

Still in this test, the particulars now being: HTRF (TR-FRET); displacement of ETGE-biotin from Keap1-MBP; values banded into grades; read-out: Binding (IC50) ETGE-Keap1.
As for `CCCCCCCCCCCCCCCCCC(=O)NCCC(=O)N[C@@H](CC(C)C)C(=O)N[C@@H](CCC(N)=O)C(=O)N[C@H]1CSCc2cccc(n2)CSC[C@@H](C(=O)N[C@@H](CC(C)C)C(=O)N2CCC[C@H]2C(N)=O)NC(=O)[C@H](CCC(=O)O)NC(=O)CNC(=O)[C@H]([C@@H](C)O)NC(=O)[C@H](CCC(=O)O)NC(=O)[C@@H]2CCCN2C(=O)[C@H](CC(=O)O)NC1=O` [Example 62, {[Stearyl-βAla-Leu-Gln-Cys(&^1)-Asp-Pro-Glu-Thr-Gly-Glu-Cys(&^2)-Leu-Pro-NH2][&^1(pyridine)2,6-diyldimethylene&^2]}] ({Stearoyl-βAla}-LQCDPETGECLP-NH2; linker 3-10 via Pyridine(2,6-diCH2)), the IC50 is 1 to 100 nM.
Same read-out and setting: with `CCCCCCCCCCCCCCCCCC(=O)NCCC(=O)N[C@@H](CC(C)C)C(=O)N[C@@H](CCC(N)=O)C(=O)N[C@H]1CSCc2cncc(c2)CSC[C@@H](C(=O)N[C@@H](CC(C)C)C(=O)N2CCC[C@H]2C(N)=O)NC(=O)[C@H](CCC(=O)O)NC(=O)CNC(=O)[C@H]([C@@H](C)O)NC(=O)[C@H](CCC(=O)O)NC(=O)[C@@H]2CCCN2C(=O)[C@H](CC(=O)O)NC1=O` [Example 65, {[Stearyl-βAla-Leu-Gln-Cys(&^1)-Asp-Pro-Glu-Thr-Gly-Glu-Cys(&^2)-Leu-Pro-NH2][&^1(pyridine)3,5-diyldimethylene&^2]}] ({Stearoyl-βAla}-LQCDPETGECLP-NH2; linker 3-10 via Pyridine(3,5-bisCH2)) the figure was less than 1 nM.
As to `Cc1cc(C)c2c(C)c1CSC[C@@H](C(=O)N[C@@H](CC(C)C)C(=O)N1CCC[C@H]1C(=O)NCCC(=O)N[C@@H](CCCNC(=N)N)C(=O)N[C@@H](CCCCN)C(=O)N[C@@H](CCCCN)C(=O)N[C@@H](CCCNC(=N)N)C(=O)N[C@@H](CCCNC(=N)N)C(=O)N[C@@H](CCC(N)=O)C(=O)N[C@@H](CCCNC(=N)N)C(=O)N[C@@H](CCCNC(=N)N)C(=O)N[C@@H](CCCNC(=N)N)C(N)=O)NC(=O)[C@H](CCC(=O)O)NC(=O)CNC(=O)[C@H]([C@@H](C)O)NC(=O)[C@H](CCC(=O)O)NC(=O)[C@@H]1CCCN1C(=O)[C@H](CC(=O)O)NC(=O)[C@@H](NC(=O)[C@H](CCC(N)=O)NC(=O)[C@@H](N)CC(C)C)CSC2` [Example 67], the IC50 was 1 to 100 nM.
Still for that read-out and setting: the result for `CC(C)C[C@H](NC(=O)[C@@H]1CSCc2cc3ccccc3cc2CSC[C@H](NC(=O)[C@H](CCC(N)=O)NC(=O)[C@@H](N)CC(C)C)C(=O)N[C@@H](CC(=O)O)C(=O)N2CCC[C@H]2C(=O)N[C@@H](CCC(=O)O)C(=O)N[C@@H]([C@@H](C)O)C(=O)NCC(=O)N[C@@H](CCC(=O)O)C(=O)N1)C(=O)N1CCC[C@H]1C(=O)NCCC(=O)N[C@@H](CCCNC(=N)N)C(=O)N[C@@H](CCCNC(=N)N)C(=O)N[C@@H](CCCNC(=N)N)C(=O)N[C@@H](CCCNC(=N)N)C(=O)N[C@@H](CCCNC(=N)N)C(=O)N[C@@H](CCCNC(=N)N)C(=O)N[C@@H](CCCNC(=N)N)C(=O)N[C@@H](CCCNC(=N)N)C(N)=O` [Example 68, {[H-Leu-G1n-Cys(&^1)-Asp-Pro-Glu-Thr-G1y-Glu-Cys(&^2)-Leu-Pro-βAla-Arg8-NH2][&^1(naphthalene)2,3-diyldimethylene&^2]}] reads 1 to 100 nM.
`CC(C)C[C@H](NC(=O)[C@@H]1CSCc2cc3ccccc3cc2CSC[C@H](NC(=O)[C@H](CCC(N)=O)NC(=O)[C@@H](N)CC(C)C)C(=O)N[C@@H](CC(=O)O)C(=O)N2CCC[C@H]2C(=O)N[C@@H](CCC(=O)O)C(=O)N[C@@H]([C@@H](C)O)C(=O)NCC(=O)N[C@@H](CCC(=O)O)C(=O)N1)C(=O)N1CCC[C@H]1C(=O)NCCC(=O)N[C@@H](CCCNC(=N)N)C(=O)N[C@@H](CCCNC(=N)N)C(=O)N[C@@H](CCCNC(=N)N)C(=O)N[C@@H](CCCNC(=N)N)C(=O)N[C@@H](CCCNC(=N)N)C(=O)N[C@@H](CCCNC(=N)N)C(=O)N[C@@H](CCCNC(=N)N)C(=O)N[C@@H](CCCNC(=N)N)C(=O)N[C@@H](CCCNC(=N)N)C(=O)N[C@@H](CCCNC(=N)N)C(N)=O` [Example 69, {[H-Leu-G1n-Cys(&^1)-Asp-Pro-Glu-Thr-Gly-Glu-Cys(&^2)-Leu-Pro-βAla-Arg10-NH2][&^1(naphthalene)2,3-diyldimethylene&^2]}]: the IC50 lay within 1 to 100 nM.
`CCCCCCCCCCCCCCCCCC(=O)N[C@H]1C[C@H]2C(=O)N[C@@H](CCC(N)=O)C(=O)N[C@H]3CSCc4ccccc4CSC[C@H](NC(=O)[C@H](CCC(=O)O)NC(=O)CNC(=O)[C@H]([C@@H](C)O)NC(=O)[C@H](CCC(=O)O)NC(=O)[C@H](CCCNC(=N)N)NC(=O)[C@H](CC(=O)O)NC3=O)C(=O)N[C@@H](CC(C)C)C(=O)N3CCC[C@@H]3C(=O)N2C1` [Example 70, {[&^1Pro((4S)-NH-Stearyl)-Gln-Cys(&^2)-Asp-Arg-Glu-Thr-Gly-Glu-Cys(&^3)-Leu-D-Pro&^1][&^2(1,2-phenylenediyl)dimethylene&^2]}] (cyclo(CDRETGECL[dP][X1](Stearoyl)Q); linker 1-8 via oXylylene): the IC50 is less than 1 nM.
For `CC(C)C[C@H](NC(=O)[C@@H]1CSCc2ccccc2CSC[C@H](NC(=O)[C@H](CCC(N)=O)NC(=O)[C@@H](N)CC(C)C)C(=O)N[C@@H](CC(=O)O)C(=O)N[C@@H](Cc2ccc(F)cc2)C(=O)N[C@@H](CCC(=O)O)C(=O)N[C@@H]([C@@H](C)O)C(=O)NCC(=O)N[C@@H](CCC(=O)O)C(=O)N1)C(=O)N1CCC[C@H]1C(=O)NCCC(=O)N[C@@H](CCCNC(=N)N)C(=O)N[C@@H](CCCCN)C(=O)N[C@@H](CCCCN)C(=O)N[C@@H](CCCNC(=N)N)C(=O)N[C@@H](CCCNC(=N)N)C(=O)N[C@@H](CCC(N)=O)C(=O)N[C@@H](CCCNC(=N)N)C(=O)N[C@@H](CCCNC(=N)N)C(=O)N[C@@H](CCCNC(=N)N)C(N)=O` [Example 71], the IC50 lay within 1 to 100 nM.
